In patent US8309578B2, “Bicyclic pyrazole and isoxazole derivatives as antitumor and antineurodegenerative agents” (Nerviano Medical Sciences S.r.l., priority 2008, dated 2012):

The molecules below were run on Her2 protein levels in BT474 breast cancer cells (assay: Her2 degradation in BT474 breast cancer cells (immunocytochemistry, ArrayScan vTi), marker for Hsp90 inhibition). Conditions: Homo sapiens, BT-474, 8 h treatment, concentration at which cellular Her2 signal is diminished by 50% vs untreated controls.
Type: cell-based
Procedure: The potency of the compounds of formula (I) were evaluated by measuring the Her2 degradation as a marker for Hsp90 inhibition.
Hsp90 is a key component of a chaperone machinery that catalyzes the folding and quality control of several proteins. Its inhibition impairs the capacity to fold or stabilize its client proteins, leading to the proteosomal dependent degradation of these unfolded proteins. At the moment there is an increasing number (>100) of reported Hsp90 clients, but one of the most frequently way to detect Hsp90 chaperone inhibition is the detection of Her2 protein levels after short time treatment (usually 8-24 h), in order to be sure about the specificity of this effect.
Cellular activity of Hsp90 inhibitors was assessed by measuring the induced loss of Her2 protein levels in BT474 breast cancer cells (ATCC #HTB-20). Cellular Her2 levels were measured by immunocytochemistry, and quantified using an ArrayScan vTi instrument (Cellomics Thermo Scientific).
Studies were performed as follows: 5000 cells/well are seeded in 96 well plates (Perkin Elmer) in DMEM/5% FCS and incubated for 48 h at 37° C., under 5% CO2.
Medium is then replaced with fresh medium containing test compounds at the required concentration. Concentration curves are prepared in DMEM/10% FCS from compound stocks in DMSO, and final DMSO concentration is 0.1% (v/v). Duplicate wells for each concentration point are prepared, with a typical highest compound concentration of 30 μM. After addition of compound, plates are returned to the incubator for 8 h, then fixed by replacing medium with PBS containing 3.7% paraformaldehyde solution. Plates are incubated for 20 minutes at room temperature, then wells are washed in PBS and cells permiabilised by incubating with PBS containing 0, 3% Triton X-100 for 15 minutes at room temperature. Non-specific binding sites are blocked by incubating wells for 1 h in PBS containing 3% (w/v) BSA. Wells are then incubated for 1 h at room temperature in PBS containing anti Her2 mouse monoclonal (Anti-c-ErbB2/c-Neu, Mouse mAb 3B5, Calbiochem Cat No OP15) diluted 1:100 in 1% (w/v) BSA. After 3 washes in PBS, wells are incubated in PBS (w/v) 1% BSA containing a 2 μg/ml of Cy2-conjugated Goat anti mouse secondary antibody (Amersham Pharmacia Biothech cat. No PA 42002) (Absorption maximum 489 nm fluorescence maximum 506 nm) and 1 μg/ml of DAPI (Absorption maximum 359 nm fluorescence maximum 461 nm) (4′,6-Diamidino-2-phenylindole, dilactate) (Sigma cat. No D 9564) a high sensitivity dye to detect nucleid acid for nuclear staining. After washing a further 3 times in PBS, cellular Her2 immunoreactivity is assessed using the ArrayScan vTi instrument, with a Zeiss 10×0.5 N.A. objective, and applying the Cytotoxity.V3 algorithm (Cellomics/Thermo Fisher) with a XF100 filter. At least 10 fields, corresponding to at least 900 cells, are read for each well. IC50 values represent the compound concentration at which cellular Her2 signal is diminished by 50% compared with untreated controls.
The following formula is used: IC50=Bottom+(Top−Bottom)/(1+10^((Log EC50−X)));
X is the logarithm of concentration. IC50 is the response; IC50 starts at Bottom and goes to Top with a sigmoid shape. The compounds of formula (I) tested as described above, result to induce the degradation of Her2 protein.

Row | Compound | IC50 [µM]
1 | O=C(C1CCC2(CC1)OCCO2)N1CCc2n[nH]c(-c3cc(Cl)c(O)cc3O)c2C1 [compound 14, [3-(5-chloro-2,4-dihydroxyphenyl)-1,4,6,7-tetrahydro-5H-pyrazolo[4,3-c]pyridin-5-yl](1,4-dioxaspiro[4.5]dec-8-yl)methanone] | 1.1
2 | O=C(c1ccc(-n2ccnc2)cc1)N1CCc2[nH]nc(-c3cc(Cl)c(O)cc3O)c2C1 [compound 16, [3-(5-chloro-2,4-dihydroxyphenyl)-1,4,6,7-tetrahydro-5H-pyrazolo[4,3-c]pyridin-5-yl][4-(1H-imidazol-1-yl)phenyl]methanone] | 8.3
3 | CO[C@H]1CC[C@H](C(=O)N2CCc3[nH]nc(-c4cc(Cl)c(O)cc4O)c3C2)CC1 [compound 17, [3-(5-chloro-2,4-dihydroxyphenyl)-1,4,6,7-tetrahydro-5H-pyrazolo[4,3-c]pyridin-5-yl](trans-4-methoxycyclohexyl)methanone] | 3
4 | COc1ccc(CN2CCc3[nH]nc(-c4cc(Cl)c(O)cc4O)c3C2)cc1OC [compound 40, 4-chloro-6-[5-(3,4-dimethoxybenzyl)-4,5,6,7-tetrahydro-1H-pyrazolo[4,3-c]pyridin-3-yl]benzene-1,3-diol] | 4

Results, then the molecule that gave them:

Row | IC50 [µM] | Compound
5 | 3.4 | Oc1cc(O)c(-c2n[nH]c3c2CN(Cc2ccc(-n4ccnn4)cc2)CC3)cc1Cl [compound 49, 4-chloro-6-{5-[4-(1H-1,2,3-triazol-1-yl)benzyl]-4,5,6,7-tetrahydro-1H-pyrazolo[4,3-c]pyridin-3-yl}benzene-1,3-diol]
6 | 8.7 | Oc1cc(O)c(-c2onc3c2CN(Cc2ccc(-n4ccnc4)cc2)CC3)cc1Cl [compound 67, 4-chloro-6-{5-[4-(1H-imidazol-1-yl)benzyl]-4,5,6,7-tetrahydroisoxazolo[4,3-c]pyridin-3-yl}benzene-1,3-diol]
